Source: patent US6706716B2, “Compounds specific for the human α1d adrenergic receptor and uses thereof” (Synaptic Pharmaceutical Corporation, priority 1998, dated 2004)

Columns and labels:
[1] = target: T1, human 5-HT1Dα (5-HT1D) receptor (Homo sapiens, UniProt P28221); test: Competition binding ([3H]serotonin) at cloned human 5-HT1Dα (5-HT1D) receptor; conditions: read-out: binding affinity (pKi) 5-HT1Dα (5-HT1D) (converted)
T1 construct: expressed in transfected cells; host or cells: LM(tk-) clonal cell line Ltk-8-30-84 (ATCC CRL 10421)
Experimental: (§1) 5-HT1Dα (5-HT1D) and 5-HT1Dβ (5-HT1B) receptors: The cell lysates of the LM(tk-) clonal cell line stably transfected with the genes encoding each of these 5-HT receptor subtypes were prepared as described above. The cell line for the 5-HT1Dα (5-HT1D) receptor, designated as Ltk-8-30-84, was deposited on Apr. 17, 1990, and accorded ATCC Accession No. CRL 10421. The cell line for the 5-HT1Dβ (5-HT1B) receptor, designated as Ltk-11, was deposited on Apr. 17, 1990, and accorded ATCC Accession No. CRL 10422. These preparations were suspended in 50 mM Tris-HCl buffer (pH 7.4 at 37° C.) containing 10 mM MgCl2, 0.2 mM EDTA, 10 μM pargyline, and 0.1% ascorbate. […] Nonspecific binding was determined in the presence of 10 μM serotonin. The bound radioligand was separated by filtration through GF/B filters using a cell harvester.

[2] = target: T2, human 5-HT1Dβ (5-HT1B) receptor (Homo sapiens, UniProt P28222); test: Competition binding ([3H]serotonin) at cloned human 5-HT1Dβ (5-HT1B) receptor; conditions: read-out: binding affinity (pKi) 5-HT1Dβ (5-HT1B) (converted)
T2 construct: expressed in transfected cells; host or cells: LM(tk-) clonal cell line Ltk-11 (ATCC CRL 10422)
Experimental: as §1

α1D adrenergic receptor = target: T3, α1D adrenergic receptor (Rattus norvegicus, UniProt P23944); test: Isolated tissue functional assay, thoracic aorta (phenylephrine induced contraction)
T3 construct: from tissue; host or cells: rat thoracic aorta strips
T3 sequence (P23944 1-561): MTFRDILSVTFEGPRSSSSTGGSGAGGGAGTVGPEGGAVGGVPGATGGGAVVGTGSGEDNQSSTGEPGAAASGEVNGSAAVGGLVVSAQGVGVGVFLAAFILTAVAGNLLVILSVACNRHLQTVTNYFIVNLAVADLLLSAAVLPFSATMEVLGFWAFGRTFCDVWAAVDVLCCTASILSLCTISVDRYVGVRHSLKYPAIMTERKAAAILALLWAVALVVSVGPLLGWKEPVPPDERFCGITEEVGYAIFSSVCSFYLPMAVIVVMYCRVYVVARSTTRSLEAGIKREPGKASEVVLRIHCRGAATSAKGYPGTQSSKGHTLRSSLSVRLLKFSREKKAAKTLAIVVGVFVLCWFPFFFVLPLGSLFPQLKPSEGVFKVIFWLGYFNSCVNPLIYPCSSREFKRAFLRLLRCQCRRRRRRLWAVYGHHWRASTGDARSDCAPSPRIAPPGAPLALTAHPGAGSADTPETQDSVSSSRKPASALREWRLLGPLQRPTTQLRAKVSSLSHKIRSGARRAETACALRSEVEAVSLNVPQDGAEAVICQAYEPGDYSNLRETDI
Experimental: (§2) The functional in vitro activity of Compound 7 was characterized in several pharmacologically defined α1 adrenoceptor subtype isolated tissue assays (Aboud et al., 1993). (Rat epididymal vas deferens was used to determine α1A functional responses, spleen was used for α1B responses, and thoracic aorta was used for α1D responses.) Experiments were carried out according to the method of Deng et al., 1996, with minor buffer and tissue setup tension modifications. Krebs additionally contained 0.1 μM desipramine and 10 μM corticosterone to block neuronal and extra neuronal uptake, respectively, and 0.3 μM idazoxan to eliminate α2 mediated responses. Aorta and vas deferens strips were set at 0.5 g resting tension, and the splenic preparations were tensioned to 1 g. All preparations were equilibrated for 1 hr before the addition of drugs.
(§3) Additionally, its antagonist potency was determined by its ability to antagonize phenylephrine (PE) induced contraction in each of these preparations. The degree of shift of the PE agonist dose response-curve in the presence of Compound 7 was measured and pKB values were calculated (mean±s.e.m.).

α1A adrenoceptor = target: T4, α1A adrenoceptor (Rattus norvegicus, UniProt P43140); test: Isolated tissue functional assay, epididymal vas deferens (phenylephrine induced contraction)
T4 construct: from tissue; host or cells: rat epididymal vas deferens
T4 sequence (P43140 1-466): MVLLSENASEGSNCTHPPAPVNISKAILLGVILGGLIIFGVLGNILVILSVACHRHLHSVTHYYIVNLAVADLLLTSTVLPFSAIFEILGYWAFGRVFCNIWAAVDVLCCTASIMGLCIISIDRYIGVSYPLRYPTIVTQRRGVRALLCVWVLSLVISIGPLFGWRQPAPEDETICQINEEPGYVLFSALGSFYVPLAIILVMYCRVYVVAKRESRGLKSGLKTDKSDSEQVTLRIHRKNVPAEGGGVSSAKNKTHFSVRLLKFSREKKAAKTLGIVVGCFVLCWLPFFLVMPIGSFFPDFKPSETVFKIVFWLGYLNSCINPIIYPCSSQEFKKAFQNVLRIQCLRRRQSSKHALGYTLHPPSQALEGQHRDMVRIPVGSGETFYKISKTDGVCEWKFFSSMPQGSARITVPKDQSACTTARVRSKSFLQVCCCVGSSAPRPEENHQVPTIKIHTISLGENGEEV
Experimental: as §2, §3

α1B adrenoceptor = target: T5, α1B adrenoceptor (Rattus norvegicus, UniProt P15823); test: Isolated tissue functional assay, spleen (phenylephrine induced contraction)
T5 construct: from tissue; host or cells: rat splenic preparations
T5 sequence (P15823 1-515): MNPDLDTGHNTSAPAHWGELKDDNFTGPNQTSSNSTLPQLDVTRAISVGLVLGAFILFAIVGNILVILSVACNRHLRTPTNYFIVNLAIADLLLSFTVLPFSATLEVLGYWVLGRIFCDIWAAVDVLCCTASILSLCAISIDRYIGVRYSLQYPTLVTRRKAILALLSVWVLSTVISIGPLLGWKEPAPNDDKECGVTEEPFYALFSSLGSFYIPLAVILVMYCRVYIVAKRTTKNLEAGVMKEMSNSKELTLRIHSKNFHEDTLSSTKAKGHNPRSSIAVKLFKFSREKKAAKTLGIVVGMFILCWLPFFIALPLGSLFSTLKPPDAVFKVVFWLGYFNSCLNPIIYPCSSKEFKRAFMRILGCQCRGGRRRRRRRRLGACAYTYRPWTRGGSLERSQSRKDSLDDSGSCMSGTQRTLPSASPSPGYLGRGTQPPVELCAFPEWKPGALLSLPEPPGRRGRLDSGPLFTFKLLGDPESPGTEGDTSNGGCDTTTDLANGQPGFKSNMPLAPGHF
Experimental: as §2, §3

T1 sequence (P28221 whole entry): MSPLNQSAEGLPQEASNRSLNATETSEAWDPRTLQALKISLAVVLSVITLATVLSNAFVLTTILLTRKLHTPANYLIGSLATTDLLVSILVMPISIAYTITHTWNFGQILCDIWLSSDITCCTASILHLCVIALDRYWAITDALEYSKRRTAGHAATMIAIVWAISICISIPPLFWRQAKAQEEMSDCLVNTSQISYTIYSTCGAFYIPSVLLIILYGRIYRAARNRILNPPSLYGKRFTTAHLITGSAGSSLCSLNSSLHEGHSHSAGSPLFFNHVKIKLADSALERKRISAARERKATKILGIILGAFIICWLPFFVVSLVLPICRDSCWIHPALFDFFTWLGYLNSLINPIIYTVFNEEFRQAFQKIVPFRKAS
T2 sequence (P28222 whole entry): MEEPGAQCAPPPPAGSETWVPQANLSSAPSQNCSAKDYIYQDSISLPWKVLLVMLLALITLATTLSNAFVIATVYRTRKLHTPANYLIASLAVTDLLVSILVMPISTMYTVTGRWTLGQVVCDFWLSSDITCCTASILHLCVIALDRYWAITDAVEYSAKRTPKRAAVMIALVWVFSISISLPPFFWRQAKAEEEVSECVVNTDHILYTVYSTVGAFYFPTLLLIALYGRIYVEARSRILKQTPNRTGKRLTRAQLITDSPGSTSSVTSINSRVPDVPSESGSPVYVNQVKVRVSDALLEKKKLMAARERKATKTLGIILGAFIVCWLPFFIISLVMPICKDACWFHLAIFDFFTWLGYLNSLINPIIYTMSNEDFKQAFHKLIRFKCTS

O=C1CC2(CCCC2)CC(=O)N1CCN1CCN(c2cc(F)c(F)cc2F)CC1 [Compound 7, 8-{2-[4-(2,4,5-Trifluorophenyl)piperazin-1-yl]ethyl}-8-azaspiro[4.5]decane-7,9-dione] was tested, and the Ki [1] was 794 nM, the Ki [2] was 5010 nM and the agonist activity (α1D adrenergic receptor; concentrations up to 10 μM, rat thoracic aorta (α1D model)) was “failed to produce agonist activity”. For the same compound, the Kb (α1D adrenergic receptor; rat thoracic aorta (α1D), mean±s.e.m., read-out: pKB (antagonism of phenylephrine induced contraction) (converted)) was 3.16 nM, the agonist activity (α1A adrenoceptor; concentrations up to 10 μM, rat vas deferens (α1A model)) was “failed to produce agonist activity” and the Kb (α1A adrenoceptor; rat epididymal vas deferens (α1A), mean±s.e.m., read-out: pKB (antagonism of phenylephrine induced contraction) (converted)) was 6310 nM. For the same compound, the “fold less potent than in the aorta” value (α1A adrenoceptor; vas deferens versus aorta) was “approximately 2000 fold”, the agonist activity (α1B adrenoceptor; concentrations up to 10 μM, rat spleen (α1B model)) was “failed to produce agonist activity” and the Kb (α1B adrenoceptor; rat spleen (α1B), mean±s.e.m., read-out: pKB (antagonism of phenylephrine induced contraction) (converted)) was 200 nM. For the same compound, the “fold less effective than in the aorta” value (α1B adrenoceptor; spleen versus aorta) was “approximately 60 fold”.
